Data from patent US3978045A, “N^2 -dansyl-L-arginine derivatives, and the pharmaceutically acceptable acid addition salts thereof” (priority 1973, dated 1976).
Where a name gives a salt, the structure may show the parent alone. Non-standard residues stand in square brackets, D forms with d. Residues, ends and D or L forms follow the SMILES beside them. ξ: configuration not given here. *: point of attachment. Dansyl = CN(C)c1cccc2c(S(=O)(=O)*)cccc12; Pyrrolidide = C1CCN(*)C1; ξP = O=C(O)C1CCCN1; Sar = CNCC(=O)O

target: T1, thrombin (Bos taurus, UniProt P00735); assay: Fibrinogen coagulation time (thrombin-induced clotting of fibrinogen); type: biochemical; conditions: bovine fibrinogen, borate saline buffer pH 7.4, thrombin 0.1 ml of 5 units/ml, 25°C; control coagulation time 50-55 seconds; read-out: Concentration required to prolong the coagulation time by a factor of 2
T1 construct: mature alpha-thrombin (light plus heavy chain) cut from prothrombin
Procedure: The antithrombotic activities of the N^2 -dansyl-L-arginine derivatives of this invention were compared with those of a known antithrombotic agent, (N^2 -(p-tolylsulfonyl)-L-arginine methyl ester). by determining the fibrinogen coagulation time. The measurement of the fibrinogen coagulation time was conducted as follows:
Immediately after mixing, the reaction mixture was transferred from the ice bath to a bath thermostated at 25°C. Coagulation times were taken as the period between the time of transference to the 25°C bath and the time of the first appearance of fibrin threads.
The term "concentration required to prolong the coagulation time by a factor of two" is the concentration of an active ingredient required to prolong the normal coagulation time 50-55 seconds to 100-110 seconds.

| SMILES | IC (2-fold clotting time) |
| --- | --- |
| CCOC(=O)[C@H](CCCNC(=N)N)NS(=O)(=O)c1cccc2c(N(C)C)cccc12 [Sample 2, N^2 -dansyl-L-arginine ethyl ester dihydrochloride] | 8 µM |
| CCCOC(=O)[C@H](CCCNC(=N)N)NS(=O)(=O)c1cccc2c(N(C)C)cccc12 [Sample 3, N^2 -dansyl-L-arginine n-propyl ester] | 2 µM |
| CC(C)OC(=O)[C@H](CCCNC(=N)N)NS(=O)(=O)c1cccc2c(N(C)C)cccc12 [Sample 4, N^2 -dansyl-L-arginine isopropyl ester dihydrochloride] | 30 µM |
| CC(C)COC(=O)[C@H](CCCNC(=N)N)NS(=O)(=O)c1cccc2c(N(C)C)cccc12 [Sample 6, N^2 -dansyl-L-arginineisobutyl ester di(p-toluene sulfonate)] | 110 µM |
| CC=CCOC(=O)[C@H](CCCNC(=N)N)NS(=O)(=O)c1cccc2c(N(C)C)cccc12 [Sample 12, N^2 -dansyl-L-arginine crotyl ester] | 2 µM |
| C#CCCOC(=O)[C@H](CCCNC(=N)N)NS(=O)(=O)c1cccc2c(N(C)C)cccc12 [Sample 13, N^2-dansyl-L-arginine 3-butynyl ester] | 4 µM |
| CN(C)c1cccc2c(S(=O)(=O)N[C@@H](CCCNC(=N)N)C(=O)OC3CCCCC3)cccc12 [Sample 14] | 60 µM |
| CN(C)c1cccc2c(S(=O)(=O)N[C@@H](CCCNC(=N)N)C(=O)OCC3CCCO3)cccc12 (stereo partly shown) [Sample 15] | 20 µM |
| COCCOC(=O)[C@H](CCCNC(=N)N)NS(=O)(=O)c1cccc2c(N(C)C)cccc12 [Sample 16, N^2-dansyl-L-arginine 2-methoxyethyl ester] | 5 µM |
| CN(C)c1cccc2c(S(=O)(=O)N[C@@H](CCCNC(=N)N)C(=O)OCCCCCl)cccc12 [Sample 18, N^2-dansyl-L-arginine 4-chlorobutyl ester] | 7 µM |
| CCC(COC(=O)[C@H](CCCNC(=N)N)NS(=O)(=O)c1cccc2c(N(C)C)cccc12)[N+](=O)[O-] (stereo partly shown) [Sample 19] | 200 µM |
| CCNC(=O)[C@H](CCCNC(=N)N)NS(=O)(=O)c1cccc2c(N(C)C)cccc12 [Sample 20, N^2 -dansyl-N-ethyl-L-argininamide monohydrate] | 100 µM |
| CCCNC(=O)[C@H](CCCNC(=N)N)NS(=O)(=O)c1cccc2c(N(C)C)cccc12 [Sample 21, N^2 -dansyl-N-(n-propyl)-L-argininamide monohydrate] | 15 µM |
| CCCCNC(=O)[C@H](CCCNC(=N)N)NS(=O)(=O)c1cccc2c(N(C)C)cccc12 [Sample 22, N^2 -dansyl-N-(n-butyl)-L-argininamide monohydrate] | 25 µM |
| CCCCCNC(=O)[C@H](CCCNC(=N)N)NS(=O)(=O)c1cccc2c(N(C)C)cccc12 [Sample 23] | 125 µM |
| CCCCCCNC(=O)[C@H](CCCNC(=N)N)NS(=O)(=O)c1cccc2c(N(C)C)cccc12 [Sample 24, N^2 -dansyl-N-(n-hexyl)-L-argininamide monohydrate] | 20 µM |
| CCCCCCCNC(=O)[C@H](CCCNC(=N)N)NS(=O)(=O)c1cccc2c(N(C)C)cccc12 [Sample 25, N^2 -dansyl-N-(n-heptyl)-L-argininamide] | 100 µM |
| CC(C)NC(=O)[C@H](CCCNC(=N)N)NS(=O)(=O)c1cccc2c(N(C)C)cccc12 [Sample 26, N^2 -dansyl-N-isopropyl-L-argininamide] | 1000 µM |
| CC(C)CNC(=O)[C@H](CCCNC(=N)N)NS(=O)(=O)c1cccc2c(N(C)C)cccc12 [Sample 27, N^2 -dansyl-N-isobutyl-L-argininamide] | 100 µM |
| COCCNC(=O)[C@H](CCCNC(=N)N)NS(=O)(=O)c1cccc2c(N(C)C)cccc12 [Sample 28, N^2-dansyl-N-(2-methoxyethyl)-L-argininamide dihydrate] | 4 µM |
| COCCCNC(=O)[C@H](CCCNC(=N)N)NS(=O)(=O)c1cccc2c(N(C)C)cccc12 [Sample 29] | 65 µM |
| CCOCCNC(=O)[C@H](CCCNC(=N)N)NS(=O)(=O)c1cccc2c(N(C)C)cccc12 [Sample 30, N^2-dansyl-N-(2-ethoxyethyl)-L-argininamide] | 5 µM |
| CCOC(=O)CNC(=O)[C@H](CCCNC(=N)N)NS(=O)(=O)c1cccc2c(N(C)C)cccc12 [Sample 31, N^2-dansyl-N-(2-ethoxycarbonylmethyl)-L-argininamide diacetate] (Dansyl-Arg-Gly-OEt) | 160 µM |
| COC(=O)CCNC(=O)[C@H](CCCNC(=N)N)NS(=O)(=O)c1cccc2c(N(C)C)cccc12 [Sample 32, N^2-dansyl-N-(2-methoxycarbonylethyl)-L-argininamide] | 22 µM |
| CCOC(=O)CCNC(=O)[C@H](CCCNC(=N)N)NS(=O)(=O)c1cccc2c(N(C)C)cccc12 [Sample 33, N^2-dansyl-N-(2-ethoxycarbonylethyl)-L-argininamide diacetate] | 5 µM |

| SMILES | IC (2-fold clotting time) |
| --- | --- |
| CCOC(=O)CCCNC(=O)[C@H](CCCNC(=N)N)NS(=O)(=O)c1cccc2c(N(C)C)cccc12 [Sample 34] | 500 µM |
| C=CCNC(=O)[C@H](CCCNC(=N)N)NS(=O)(=O)c1cccc2c(N(C)C)cccc12 [Sample 35, N^2 -dansyl-N-allyl-L-argininamide] | 10 µM |
| CN(C)c1cccc2c(S(=O)(=O)N[C@@H](CCCNC(=N)N)C(=O)NC3CC3)cccc12 [Sample 36] | 200 µM |
| CN(C)c1cccc2c(S(=O)(=O)N[C@@H](CCCNC(=N)N)C(=O)NCC3CCCCC3)cccc12 [Sample 37, N^2 -dansyl-N-cyclohexylmethyl-L-argininamide] | 40 µM |
| CN(C)c1cccc2c(S(=O)(=O)N[C@@H](CCCNC(=N)N)C(=O)Nc3ccccc3)cccc12 [Sample 38] | 100 µM |
| CN(C)c1cccc2c(S(=O)(=O)N[C@@H](CCCNC(=N)N)C(=O)NCc3ccccc3)cccc12 [Sample 39] | 50 µM |
| CN(C)c1cccc2c(S(=O)(=O)N[C@@H](CCCNC(=N)N)C(=O)NCCc3ccccc3)cccc12 [Sample 40, N^2 -dansyl-N-(β-phenylethyl)-L-argininamide dihydrate] | 150 µM |
| CN(C)c1cccc2c(S(=O)(=O)N[C@@H](CCCNC(=N)N)C(=O)NCCCc3ccccc3)cccc12 [Sample 41] | 27 µM |
| CN(C)c1cccc2c(S(=O)(=O)N[C@@H](CCCNC(=N)N)C(=O)NCCC(=O)Nc3ccccc3)cccc12 [Sample 42, N^2-dansyl-N-(2-phenylcarbamoylethyl)-L-argininamide diacetate] | > 500 µM |
| CN(C)c1cccc2c(S(=O)(=O)N[C@@H](CCCNC(=N)N)C(=O)NCC(=O)N3CCCC3)cccc12 [Sample 43] (Dansyl-Arg-Gly-Pyrrolidide) | 370 µM |
| CCN(CC)C(=O)[C@H](CCCNC(=N)N)NS(=O)(=O)c1cccc2c(N(C)C)cccc12 [Sample 45, N^2 -dansyl-N,N-diethyl-L-argininamide diacetate] | 55 µM |
| CCCCN(CCCC)C(=O)[C@H](CCCNC(=N)N)NS(=O)(=O)c1cccc2c(N(C)C)cccc12 [Sample 46] | 39 µM |
| CCCCN(C)C(=O)[C@H](CCCNC(=N)N)NS(=O)(=O)c1cccc2c(N(C)C)cccc12 [Sample 47, N^2 -dansyl-N-(n-butyl)-N-methyl-L-argininamide diacetate] | 2 µM |
| CCCCN(CC)C(=O)[C@H](CCCNC(=N)N)NS(=O)(=O)c1cccc2c(N(C)C)cccc12 [Sample 48] | 50 µM |
| CCOC(=O)CN(C)C(=O)[C@H](CCCNC(=N)N)NS(=O)(=O)c1cccc2c(N(C)C)cccc12 [Sample 49] (Dansyl-Arg-[Sar]-OEt) | 59 µM |
| COC(=O)CCN(C)C(=O)[C@H](CCCNC(=N)N)NS(=O)(=O)c1cccc2c(N(C)C)cccc12 [Sample 50, N^2-dansyl-N-methyl-N-(2-methoxycarbonylethyl)-L-argininamide] | 2.5 µM |
| CCOC(=O)CCN(C)C(=O)[C@H](CCCNC(=N)N)NS(=O)(=O)c1cccc2c(N(C)C)cccc12 [Sample 51] | 15 µM |
| CN(Cc1ccccc1)C(=O)[C@H](CCCNC(=N)N)NS(=O)(=O)c1cccc2c(N(C)C)cccc12 [Sample 52, N^2 -dansyl-N-methyl-N-benzyl-L-argininamide] | 7 µM |
| CN(C)c1cccc2c(S(=O)(=O)N[C@@H](CCCNC(=N)N)C(=O)N3CCCC3)cccc12 [Sample 53, 1-(N^2-dansyl-L-arginyl)pyrrolidine diacetate] | 3.3 µM |
| CCOC(=O)C1CCCN1C(=O)[C@H](CCCNC(=N)N)NS(=O)(=O)c1cccc2c(N(C)C)cccc12 (stereo partly shown) [Sample 54] (Dansyl-Arg-[ξP]-OEt) | 780 µM |
| CN(C)c1cccc2c(S(=O)(=O)N[C@@H](CCCNC(=N)N)C(=O)N3CCCCC3)cccc12 [Sample 55, 1-(N^2-dansyl-L-arginyl)piperidine diacetate] | 0.9 µM |
| CC1CCCCN1C(=O)[C@H](CCCNC(=N)N)NS(=O)(=O)c1cccc2c(N(C)C)cccc12 (stereo partly drawn) [Sample 56, 2-methyl-1-(N^2-dansyl-L-arginyl)piperidine] | 1.3 µM |
| CC1CCCN(C(=O)[C@H](CCCNC(=N)N)NS(=O)(=O)c2cccc3c(N(C)C)cccc23)C1 (stereo partly drawn) [Sample 57, 3-methyl-1-(N^2-dansyl-L-arginyl)piperidine] | 6.5 µM |
| CC1CCN(C(=O)[C@H](CCCNC(=N)N)NS(=O)(=O)c2cccc3c(N(C)C)cccc23)CC1 [Sample 58, 4-methyl-1-(N^2-dansyl-L-arginyl)piperidine diacetate] | 0.3 µM |
